EC50 and Emax data for 5 compounds are collected here from patent publication US11149054B2, “Oxysterols and methods of use thereof” (Sage Therapeutics, Inc., priority 2016, dated 2021).

Each structure is given as a SMILES string. Like-named read-outs stand apart in the source and are kept apart here.

For orientation: EC50 means the concentration at which the effect is half-maximal. By Emax is commonly meant the greatest response seen or fitted, relative to the assay's reference.

For test [1], the target named is GlunN1/GluN2A glutamate receptors (Homo sapiens (Human), UniProt Q05586+Q12879). The test can be described thus: Whole-cell patch clamp of mammalian cells (Ionworks Barracuda), positive allosteric modulation, GluN1/GluN2A. The test is classed as cell-based. The gist of the method: (§1)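 Perforated-patch whole-cell recording, holding −70 mV, −40 mV during application; Cs-based internal pH 7.2, external with 5 mM CaCl2 pH 7.4. Test article pre-applied alone 5 min, then co-applied with EC20 L-glutamate plus 30 μM glycine. EC50 from Hill fit of % activation over the EC20 current.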

Test [2] has as its target GluN2B glutamate receptors (Homo sapiens (Human), UniProt Q05586+Q13224). The test is described as follows: Whole-cell patch clamp of mammalian cells (Ionworks Barracuda), positive allosteric modulation, GluN2B. The test is classed as cell-based. Particulars: for Emax: read-out: Avg Emax 2B (%). The gist of the method: as §1
On the technique in general: In patch-clamp work, channel activity is measured electrically.

The mark [3] stands for this setting: HEK293 cells, % potentiation of current elicited with EC20 L-glutamate and 30 μM glycine, read-out: Avg Emax 2A (%).
Where [4] appears, read: % potentiation of current elicited with EC20 L-glutamate and 30 μM glycine.

Sequence of GlunN1/GluN2A glutamate receptors (Q12879 23-1464, other chains not shown): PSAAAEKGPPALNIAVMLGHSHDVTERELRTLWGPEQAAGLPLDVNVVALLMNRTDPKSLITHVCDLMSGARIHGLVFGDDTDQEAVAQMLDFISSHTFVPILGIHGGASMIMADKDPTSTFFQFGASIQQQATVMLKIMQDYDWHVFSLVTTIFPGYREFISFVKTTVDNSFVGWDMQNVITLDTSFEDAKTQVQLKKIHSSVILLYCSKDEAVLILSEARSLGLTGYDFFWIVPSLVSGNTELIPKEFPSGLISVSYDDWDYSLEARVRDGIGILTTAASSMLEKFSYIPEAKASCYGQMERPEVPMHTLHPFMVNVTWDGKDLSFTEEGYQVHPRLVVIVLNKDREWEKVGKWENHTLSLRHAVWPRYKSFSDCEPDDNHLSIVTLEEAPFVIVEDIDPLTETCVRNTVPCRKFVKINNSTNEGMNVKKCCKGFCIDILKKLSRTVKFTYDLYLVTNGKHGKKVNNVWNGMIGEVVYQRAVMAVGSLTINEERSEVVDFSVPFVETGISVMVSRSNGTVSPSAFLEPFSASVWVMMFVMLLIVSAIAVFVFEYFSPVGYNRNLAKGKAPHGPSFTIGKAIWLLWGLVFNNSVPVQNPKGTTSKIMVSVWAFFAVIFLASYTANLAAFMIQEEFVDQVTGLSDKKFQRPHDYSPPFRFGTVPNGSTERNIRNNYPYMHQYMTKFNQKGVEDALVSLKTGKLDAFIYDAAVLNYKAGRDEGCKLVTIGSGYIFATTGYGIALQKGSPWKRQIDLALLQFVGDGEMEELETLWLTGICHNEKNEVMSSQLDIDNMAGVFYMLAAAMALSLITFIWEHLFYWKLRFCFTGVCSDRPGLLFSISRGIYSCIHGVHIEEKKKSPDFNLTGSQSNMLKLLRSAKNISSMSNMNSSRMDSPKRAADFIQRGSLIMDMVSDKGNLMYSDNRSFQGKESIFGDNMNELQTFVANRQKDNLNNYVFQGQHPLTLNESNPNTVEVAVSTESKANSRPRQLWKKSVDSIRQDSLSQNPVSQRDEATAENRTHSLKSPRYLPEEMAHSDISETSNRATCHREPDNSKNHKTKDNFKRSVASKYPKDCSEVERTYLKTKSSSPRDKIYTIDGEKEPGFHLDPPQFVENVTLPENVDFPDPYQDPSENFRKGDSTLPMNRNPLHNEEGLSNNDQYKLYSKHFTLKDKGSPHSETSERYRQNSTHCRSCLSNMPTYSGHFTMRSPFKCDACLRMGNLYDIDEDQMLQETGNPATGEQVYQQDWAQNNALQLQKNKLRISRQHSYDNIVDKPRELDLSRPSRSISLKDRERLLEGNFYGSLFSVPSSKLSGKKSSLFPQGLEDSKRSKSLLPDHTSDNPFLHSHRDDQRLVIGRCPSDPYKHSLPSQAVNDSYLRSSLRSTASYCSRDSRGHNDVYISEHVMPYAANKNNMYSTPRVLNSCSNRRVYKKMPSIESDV
Sequence of GluN2B glutamate receptors (Q13224 27-1484, other chains not shown): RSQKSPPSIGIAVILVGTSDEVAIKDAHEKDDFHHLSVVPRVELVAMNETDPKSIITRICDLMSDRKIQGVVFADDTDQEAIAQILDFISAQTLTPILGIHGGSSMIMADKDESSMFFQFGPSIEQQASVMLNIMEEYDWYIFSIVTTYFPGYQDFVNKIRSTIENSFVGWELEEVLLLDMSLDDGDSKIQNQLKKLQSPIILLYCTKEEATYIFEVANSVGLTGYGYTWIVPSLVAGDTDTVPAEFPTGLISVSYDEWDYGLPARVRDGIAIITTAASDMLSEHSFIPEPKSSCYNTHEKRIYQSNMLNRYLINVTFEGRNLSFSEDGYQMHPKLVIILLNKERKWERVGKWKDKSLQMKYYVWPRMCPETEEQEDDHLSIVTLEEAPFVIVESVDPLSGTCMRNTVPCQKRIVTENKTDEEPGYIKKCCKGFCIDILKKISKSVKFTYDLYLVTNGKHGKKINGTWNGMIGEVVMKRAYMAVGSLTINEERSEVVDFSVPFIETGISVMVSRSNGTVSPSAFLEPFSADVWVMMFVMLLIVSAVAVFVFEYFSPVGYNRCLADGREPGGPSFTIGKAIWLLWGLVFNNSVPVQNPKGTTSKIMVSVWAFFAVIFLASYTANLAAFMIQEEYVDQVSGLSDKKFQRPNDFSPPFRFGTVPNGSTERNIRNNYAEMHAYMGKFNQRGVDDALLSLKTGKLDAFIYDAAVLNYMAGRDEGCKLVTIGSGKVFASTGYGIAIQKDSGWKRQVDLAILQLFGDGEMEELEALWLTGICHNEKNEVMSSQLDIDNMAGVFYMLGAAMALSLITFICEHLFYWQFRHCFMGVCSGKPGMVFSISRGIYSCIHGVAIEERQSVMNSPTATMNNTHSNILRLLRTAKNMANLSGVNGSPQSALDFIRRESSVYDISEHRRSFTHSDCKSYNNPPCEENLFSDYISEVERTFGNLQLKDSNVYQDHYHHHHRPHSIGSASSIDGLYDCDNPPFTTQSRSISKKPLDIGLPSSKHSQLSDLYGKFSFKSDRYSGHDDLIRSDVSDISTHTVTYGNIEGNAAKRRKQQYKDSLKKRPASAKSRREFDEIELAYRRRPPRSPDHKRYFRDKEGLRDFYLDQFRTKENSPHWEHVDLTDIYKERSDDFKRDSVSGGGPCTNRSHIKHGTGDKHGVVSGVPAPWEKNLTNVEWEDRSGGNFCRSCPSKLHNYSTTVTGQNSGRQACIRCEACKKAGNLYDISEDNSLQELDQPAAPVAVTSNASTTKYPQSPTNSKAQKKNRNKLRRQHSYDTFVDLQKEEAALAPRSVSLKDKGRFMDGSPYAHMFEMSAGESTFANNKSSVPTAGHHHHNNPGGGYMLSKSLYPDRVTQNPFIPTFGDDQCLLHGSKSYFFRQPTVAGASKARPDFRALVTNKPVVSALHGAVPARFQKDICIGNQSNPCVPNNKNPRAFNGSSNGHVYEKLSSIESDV

Turning to `CC(C)[C@H](O)CCC[C@@H](C)[C@H]1CC[C@H]2[C@@H]3CC[C@H]4C[C@](O)(C(F)(F)F)CC[C@]4(C)[C@H]3CC[C@]12C` [Compound 11828], the figures for the EC50 in test [1] and in test [2] were 0.147 µM and 0.0769 µM, respectively. The Emax worked out at 142% in test [1] (HEK293, read-out: Avg Emax 2A (%)) and 114% in test [2].
Consider `C[C@H](CCC[C@H](O)C(F)(F)F)[C@H]1CC[C@H]2[C@@H]3CC[C@H]4C[C@](O)(C(F)(F)F)CC[C@]4(C)[C@H]3CC[C@]12C` [Compound 11934], for which the Emax stood at 113% in test [1] (setting [3]) and 70% in test [2] (setting [4]).
In the same order, the values of `C[C@H](CCC[C@@H](O)C(C)(C)C)[C@H]1CC[C@H]2[C@@H]3CC[C@H]4C[C@](O)(C(F)(F)F)CC[C@]4(C)[C@H]3CC[C@]12C` [Compound 12055] are 114% and 185%.
For `C[C@H](CCC[C@H](O)C(C)(C)C)[C@H]1CC[C@H]2[C@@H]3CC[C@H]4C[C@](O)(C(F)(F)F)CC[C@]4(C)[C@H]3CC[C@]12C` [Compound 12156], in that order: 43.2% and 111%.
Regarding `C[C@H](CCC1(O)CCC(C)(C)CC1)[C@H]1CC[C@H]2[C@@H]3CC[C@H]4C[C@](O)(C(F)(F)F)CC[C@]4(C)[C@H]3CC[C@]12C` [Compound E-2817], the Emax is 29.9% in test [1] (setting [3]) and 20.4% in test [2] (setting [4]).
